Measured values: patent US12678446B2 (PFIZER INC., priority 2020, dated 2026)
pEC50: −log10 of the molar value.

Legend:
cell toxicity CC50 = type: cell-based; settings: human; Hep-G2 cells; mean of at least two experiments; read-out: Cell Cytotoxicity CC50
[1] = tested on: RSV (RSV A2 ECACC, 0709161v); assay: RSV plaque reduction assay; type: cell-based, respiratory syncytial virus; settings: human respiratory syncytial virus, HepG2, read-out: RSV A2 Plaque EC50, RSV A2 in Hep-G2 cells; mean of at least two experiments unless noted (n = 1)
Description: Compounds w ere subjected to RSV plaque reduction assays according to the following protocol.
Hep-G2 cells (ECACC, 85011430) were passaged in flasks and seeded in 24-well plates in DMEM containing antibiotics and supplemented with 10% FBS. During inoculation and subsequent incubation, cells were cultured in DMEM containing 2% FBS. 100 plaque forming unit/well of RSV (RSV A2 ECACC, 0709161v) was mixed with eight serial dilutions of compound. Subsequently, 100 μL of the virus/compound mixtures was added to confluent Hep-G2 cell monolayers. The cells and virus/compound mixtures were incubated at 37° C. in a humidified 5% CO2 incubator for 2 h prior to removal of the inoculum and addition of 1 mL of overlay (DMEM containing 2% FBS and 0.8% CMC) containing compound dilutions. The cells and were incubated at 37° C. in a humidified 5% CO2 incubator for 2 days.
Cells were washed with PBS before adding 75/25% v/v EtOH MeOH, for 3 min. Fixative was removed and plates were washed with PBS. A pre-titrated amount of the primary antibody was added in 200 μL PBS/2% milk powder, and plates incubated for 90 min at 37° C. The plates were washed 3 times with PBS/0.05% Tween20 before addition of rabbit anti-goat horse radish peroxidase in 200 μL PBS/2% milk powder, and incubated for 1 h at 37° C. Following three wash steps with PBS/0.05% Tween20, 200 μL ready-to-use TrueBlue was added and plates were incubated at rt for 10-15 min before washing with water. After removal of water, plates were air-dried in the dark.
Plates were scanned and analysed using the Immunospot S6 Macro analyser, which is equipped with BioSpot analysis software for counting immunostained plaques (virospots). Plaque counts were used to calculate % infection relative to the mean of the plaque count in the virus control wells for RSV. […] Unless otherwise noted, plaque EC50 and cell toxicity CC50 values are a mean of at least two experiments and figures are rounded to whole units.

| SMILES | CC50 (cell toxicity CC50) [µM] | pEC50 [1] |
| --- | --- | --- |
| C[C@@H]1CCn2nc(-c3ccc(CC(C)(C)O)nc3)c(C(=O)N[C@H]3N=C(c4ccccc4)c4cccc(F)c4NC3=O)c2O1 [Example 85, (5R)-2-[6-(2-Hydroxy-2-methylpropyl)pyridin-3-yl]-5-methyl-N-[(3S)-9-fluoro-2-oxo-5-phenyl-1,3-dihydro-1,4-benzodiazepin-3-yl]-6,7-dihydro-5H-pyrazolo[5,1-b][1,3]oxazine-3-carboxamide] | > 25 | 6.92 |
| O=C(N[C@H]1N=C(c2ccccc2)c2cccc(F)c2NC1=O)c1c(-c2cnn(C3CCOCC3)c2)nn2c1OCCC2 [Example 152, N-[(3S)-9-Fluoro-2-oxo-5-phenyl-1,3-dihydro-1,4-benzodiazepin-3-yl]-2-[1-(oxan-4-yl)pyrazol-4-yl]-6,7-dihydro-5H-pyrazolo[5,1-b][1,3]oxazine-3-carboxamide] | > 25 | 7.08 |
| O=C(N[C@H]1N=C(c2ccccc2)c2ccccc2NC1=O)c1c(-c2ccccc2)nn2c1OCC1(COC1)C2 [Example 28, N-[(3S)-2-oxo-5-phenyl-1,3-dihydro-1,4-benzodiazepin-3-yl]-2-phenylspiro[5,7-dihydropyrazolo[5,1-b][1,3]oxazine-6,3′-oxetane]-3-carboxamide] | > 25 | 7.12 |
| C[C@H]1CCn2nc(-c3ccc(N4C[C@H]5C[C@@H]4CO5)nc3)c(C(=O)N[C@H]3N=C(c4ccccc4)c4cccc(F)c4NC3=O)c2O1 [Example 94, (5S)-5-Methyl-N-[(3S)-9-fluoro-2-oxo-5-phenyl-1,3-dihydro-1,4-benzodiazepin-3-yl]-2-[6-[(1R,4R)-2-oxa-5-azabicyclo[2.2.1]heptan-5-yl]pyridin-3-yl]-6,7-dihydro-5H-pyrazolo[5,1-b][1,3]oxazine-3-carboxamide] | > 25 | 7.36 |
| C[C@@H]1CCn2nc(-c3ccsc3)c(C(=O)N[C@H]3N=C(c4ccccc4)c4ccccc4NC3=O)c2O1 [Example 64, (5R)-5-Methyl-N-[(3S)-2-oxo-5-phenyl-1,3-dihydro-1,4-benzodiazepin-3-yl]-2-(3-thienyl)-6,7-dihydro-5H-pyrazolo[5,1-b][1,3]oxazine-3-carboxamide] | > 25 | 6.88 |
| CC1(Cn2cc(-c3nn4c(c3C(=O)N[C@H]3N=C(c5ccccc5)c5cccc(F)c5NC3=O)OCCC4)cn2)COC1 [Example 104, N-[(3S)-9-fluoro-2-oxo-5-phenyl-1,3-dihydro-1,4-benzodiazepin-3-yl]-2-[1-[(3-methyloxetan-3-yl)methyl]pyrazol-4-yl]-6,7-dihydro-5H-pyrazolo[5,1-b][1,3]oxazine-3-carboxamide] | > 25 | 6.89 |
| COCCn1cc(-c2nn3c(c2C(=O)N[C@H]2N=C(c4ccccc4)c4cccc(F)c4NC2=O)O[C@H](C)CC3)cn1 [Example 119, (5R)-N-[(3S)-9-fluoro-2-oxo-5-phenyl-1,3-dihydro-1,4-benzodiazepin-3-yl]-2-[1-(2-methoxyethyl)pyrazol-4-yl]-5-methyl-6,7-dihydro-5H-pyrazolo[5,1-b][1,3]oxazine-3-carboxamide] | > 25 | 7.16 |
| O=C(N[C@H]1N=C(c2ccccc2)c2cccc(F)c2NC1=O)c1c(-c2ccc(NC3CC3)nc2F)nn2c1OCCC2 [Example 39, 2-[6-(Cyclopropylamino)-2-fluoropyridin-3-yl]-N-[(3S)-9-fluoro-2-oxo-5-phenyl-1,3-dihydro-1,4-benzodiazepin-3-yl]-6,7-dihydro-5H-pyrazolo[5,1-b][1,3]oxazine-3-carboxamide] | > 25 | 7.40 |
| O=C(N[C@H]1N=C(c2ccccc2)c2cccc(F)c2NC1=O)c1c(-c2ccccc2F)nn2c1S(=O)(=O)CCC2 [Example 33, 2-(2-Fluorophenyl)-N-[(3S)-9-fluoro-2-oxo-5-phenyl-2,3-dihydro-1H-1,4-benzodiazepin-3-yl]-4,4-dioxo-5H,6H,7H-4λ^6-pyrazolo[3,2-b][1,3]thiazine-3-carboxamide] | > 25 | 6.32 |
| C[C@@H]1CCn2nc(-c3cnn(C4CC4)c3)c(C(=O)N[C@H]3N=C(c4ccccc4)c4cccc(F)c4NC3=O)c2O1 [Example 126, (5R)-2-(1-Cyclopropylpyrazol-4-yl)-N-[(3S)-9-fluoro-2-oxo-5-phenyl-1,3-dihydro-1,4-benzodiazepin-3-yl]-5-methyl-6,7-dihydro-5H-pyrazolo[5,1-b][1,3]oxazine-3-carboxamide] | > 25 | 7.27 |
| O=C(N[C@H]1N=C(c2ccccc2)c2ccccc2NC1=O)c1c(-c2cccnc2F)nn2c1OCCC2 [Example 136, 2-(2-Fluoropyridin-3-yl)-N-[(3S)-2-oxo-5-phenyl-1,3-dihydro-1,4-benzodiazepin-3-yl]-6,7-dihydro-5H-pyrazolo[5,1-b][1,3]oxazine-3-carboxamide] | > 25 | 6.74 |
| O=C(N[C@H]1N=C(c2ccccc2)c2ccccc2NC1=O)c1c(-c2cnn(CC(F)(F)F)c2)nn2c1OCCC2 [Example 151, N-[(3S)-2-oxo-5-phenyl-1,3-dihydro-1,4-benzodiazepin-3-yl]-2-[1-(2,2,2-trifluoroethyl)pyrazol-4-yl]-6,7-dihydro-5H-pyrazolo[5,1-b][1,3]oxazine-3-carboxamide] | > 25 | 6.97 |
| CN(C)CC1CCn2nc(-c3ccccc3F)c(C(=O)N[C@H]3N=C(c4ccccc4)c4cccc(F)c4NC3=O)c2O1 (stereo partly drawn) [Example 166, 5-[(Dimethylamino)methyl]-N-[(3S)-9-fluoro-2-oxo-5-phenyl-1,3-dihydro-1,4-benzodiazepin-3-yl]-2-(2-fluorophenyl)-6,7-dihydro-5H-pyrazolo[5,1-b][1,3]oxazine-3-carboxamide] | > 25 | 6.70 |
| O=C(N[C@H]1N=C(c2ccccc2)c2ccccc2NC1=O)c1c(-c2ccc(NC3CC3)nc2F)nn2c1OCCC2 [Example 44, 2-[6-(Cyclopropylamino)-2-fluoropyridin-3-yl]-N-[(3S)-2-oxo-5-phenyl-1,3-dihydro-1,4-benzodiazepin-3-yl]-6,7-dihydro-5H-pyrazolo[5,1-b][1,3]oxazine-3-carboxamide] | > 25 | 7.26 |
| CCc1ccc(-c2nn3c(c2C(=O)N[C@H]2N=C(c4ccccc4)c4ccccc4NC2=O)O[C@H](C)CC3)c(C)n1 [Example 65, (5R)-2-(6-Ethyl-2-methyl-3-pyridyl)-5-methyl-N-[(3S)-2-oxo-5-phenyl-1,3-dihydro-1,4-benzodiazepin-3-yl]-6,7-dihydro-5H-pyrazolo[5,1-b][1,3]oxazine-3-carboxamide] | > 25 | 7.08 |
| CN1CCN(CC2COc3c(C(=O)N[C@H]4N=C(c5ccccc5)c5cccc(F)c5NC4=O)c(-c4ccccc4F)nn3C2)CC1 (stereo partly drawn) [Example 172, N-[(3S)-9-fluoro-2-oxo-5-phenyl-1,3-dihydro-1,4-benzodiazepin-3-yl]-2-(2-fluorophenyl)-6-[(4-methylpiperazin-1-yl)methyl]-6,7-dihydro-5H-pyrazolo[5,1-b][1,3]oxazine-3-carboxamide] | > 19.9 | 6.63 |
| Cc1ccc(-c2nn3c(c2C(=O)N[C@H]2N=C(c4ccccc4)c4cccc(F)c4NC2=O)O[C@H](C)CC3)c(F)n1 [Example 73, (5R)-2-(2-Fluoro-6-methylpyridin-3-yl)-5-methyl-N-[(3S)-9-fluoro-2-oxo-5-phenyl-1,3-dihydro-1,4-benzodiazepin-3-yl]-6,7-dihydro-5H-pyrazolo[5,1-b][1,3]oxazine-3-carboxamide] | > 25 | 7.04 |
| CCn1cc(-c2nn3c(c2C(=O)N[C@H]2N=C(c4ccccc4)c4cccc(F)c4NC2=O)O[C@@H](C)CC3)cn1 [Example 158, (5S)-2-(1-Ethylpyrazol-4-yl)-N-[(3S)-9-fluoro-2-oxo-5-phenyl-1,3-dihydro-1,4-benzodiazepin-3-yl]-5-methyl-6,7-dihydro-5H-pyrazolo[5,1-b][1,3]oxazine-3-carboxamide] | > 25 | 7.32 |
| O=C(N[C@H]1N=C(c2ccccc2)c2ccccc2NC1=O)c1c(-c2ccc(F)cc2F)nn2c1OCCC2 [Example 1, 2-(2,4-Difluorophenyl)-N-[(3S)-2-oxo-5-phenyl-1,3-dihydro-1,4-benzodiazepin-3-yl]-6,7-dihydro-5H-pyrazolo[5,1-b][1,3]oxazine-3-carboxamide] | > 25 | 7.48 |
| CC(C)c1ccc(-c2nn3c(c2C(=O)N[C@H]2N=C(c4ccccc4)c4cccc(F)c4NC2=O)O[C@H](C)CC3)cn1 [Example 70, (5R)-5-Methyl-2-(6-propan-2-ylpyridin-3-yl)-N-[(3S)-9-fluoro-2-oxo-5-phenyl-1,3-dihydro-1,4-benzodiazepin-3-yl]-6,7-dihydro-5H-pyrazolo[5,1-b][1,3]oxazine-3-carboxamide] | > 25 | 7.30 |
